This passage reports inhibition and IC50 results from patent US11535611B2, “Pyrazolo[3,4-B]pyridines and imidazo[1,5-B]pyridazines as PDE1 inhibitors” (H. Lundbeck A/S, priority 2017, dated 2022).

Common to all, as to type: biochemical
One assay deals with PDE1A (Homo sapiens (Human), UniProt P54750). Put plainly: PDE1 inhibition assay, PDE1A. Conditions: for inhibition at 10 µM: @ 10 μM compound; for IC50: 15 nM tritium labelled cAMP, 1 hr at room temperature, SPA beads. As to the method: (§1) PDE1A, PDE1B and PDE1C assays were performed as follows: the assays were performed in 60 μL samples containing a fixed amount of the PDE1 enzyme (sufficient to convert 20-25% of the cyclic nucleotide substrate), a buffer (50 mM HEPES (4-(2-hydroxyethyl)-1-piperazineethanesulfonic acid) pH 7.6; 10 mM MgCl2; 0.02% Tween20), 0.1 mg/ml BSA (bovine serum albumin), 15 nM tritium labelled cAMP and varying amounts of inhibitors. Reactions were initiated by addition of the cyclic nucleotide substrate, and reactions were allowed to proceed for 1 hr at room temperature before being terminated through mixing with 20 μL (0.2 mg) yttrium silicate SPA beads (PerkinElmer). The beads were allowed to settle for 1 hour in the dark before the plates were counted in a Wallac 1450 Microbeta counter. The measured signals were converted to activity relative to an uninhibited control (100%) and IC50 values were calculated using XIFit (model 205, IDBS).
Sequence of PDE1A (P54750 whole entry): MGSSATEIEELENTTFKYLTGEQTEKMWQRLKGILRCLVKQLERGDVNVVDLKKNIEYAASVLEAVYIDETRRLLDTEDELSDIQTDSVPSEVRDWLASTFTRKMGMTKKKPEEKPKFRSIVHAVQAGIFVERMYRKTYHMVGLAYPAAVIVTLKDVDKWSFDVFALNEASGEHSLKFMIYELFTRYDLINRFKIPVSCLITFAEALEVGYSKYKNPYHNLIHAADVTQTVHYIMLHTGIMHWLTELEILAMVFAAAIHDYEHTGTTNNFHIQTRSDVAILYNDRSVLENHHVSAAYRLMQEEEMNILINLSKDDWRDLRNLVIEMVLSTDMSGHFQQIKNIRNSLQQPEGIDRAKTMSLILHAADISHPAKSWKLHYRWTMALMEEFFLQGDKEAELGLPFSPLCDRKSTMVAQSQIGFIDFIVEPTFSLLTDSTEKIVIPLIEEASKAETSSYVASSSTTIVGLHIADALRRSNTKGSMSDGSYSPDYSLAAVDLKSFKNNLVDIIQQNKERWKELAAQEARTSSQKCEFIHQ

For the next assay, the target named is PDE1B (Homo sapiens (Human), UniProt Q01064). Kind of assay: PDE1 inhibition assay, PDE1B. To be noted: 15 nM tritium labelled cAMP, 1 hr at room temperature, SPA beads; read-out: PDE1 B, IC50. As to the method: as §1
Sequence of PDE1B (Q01064 whole entry): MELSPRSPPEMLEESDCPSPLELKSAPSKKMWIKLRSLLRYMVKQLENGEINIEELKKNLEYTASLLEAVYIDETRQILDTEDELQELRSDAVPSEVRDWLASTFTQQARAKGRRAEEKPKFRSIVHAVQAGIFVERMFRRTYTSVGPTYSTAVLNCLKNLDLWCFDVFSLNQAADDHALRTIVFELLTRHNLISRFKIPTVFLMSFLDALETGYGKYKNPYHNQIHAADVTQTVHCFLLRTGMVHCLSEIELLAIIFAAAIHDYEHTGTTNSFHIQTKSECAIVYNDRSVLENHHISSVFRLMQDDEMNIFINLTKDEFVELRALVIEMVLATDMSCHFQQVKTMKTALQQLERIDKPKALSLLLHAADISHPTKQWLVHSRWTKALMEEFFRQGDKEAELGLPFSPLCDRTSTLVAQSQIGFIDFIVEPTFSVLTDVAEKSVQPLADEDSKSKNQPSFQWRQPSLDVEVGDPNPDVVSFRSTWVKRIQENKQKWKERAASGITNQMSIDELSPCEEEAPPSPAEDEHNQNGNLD
The next assay deals with PDE1C (Homo sapiens (Human), UniProt Q14123). Put plainly: PDE1 inhibition assay, PDE1C. To be noted: for IC50: 15 nM tritium labelled cAMP, 1 hr at room temperature, SPA beads, read-out: PDE1 C, IC50. As to the method:
as §1

Sequence of PDE1C (Q14123 whole entry): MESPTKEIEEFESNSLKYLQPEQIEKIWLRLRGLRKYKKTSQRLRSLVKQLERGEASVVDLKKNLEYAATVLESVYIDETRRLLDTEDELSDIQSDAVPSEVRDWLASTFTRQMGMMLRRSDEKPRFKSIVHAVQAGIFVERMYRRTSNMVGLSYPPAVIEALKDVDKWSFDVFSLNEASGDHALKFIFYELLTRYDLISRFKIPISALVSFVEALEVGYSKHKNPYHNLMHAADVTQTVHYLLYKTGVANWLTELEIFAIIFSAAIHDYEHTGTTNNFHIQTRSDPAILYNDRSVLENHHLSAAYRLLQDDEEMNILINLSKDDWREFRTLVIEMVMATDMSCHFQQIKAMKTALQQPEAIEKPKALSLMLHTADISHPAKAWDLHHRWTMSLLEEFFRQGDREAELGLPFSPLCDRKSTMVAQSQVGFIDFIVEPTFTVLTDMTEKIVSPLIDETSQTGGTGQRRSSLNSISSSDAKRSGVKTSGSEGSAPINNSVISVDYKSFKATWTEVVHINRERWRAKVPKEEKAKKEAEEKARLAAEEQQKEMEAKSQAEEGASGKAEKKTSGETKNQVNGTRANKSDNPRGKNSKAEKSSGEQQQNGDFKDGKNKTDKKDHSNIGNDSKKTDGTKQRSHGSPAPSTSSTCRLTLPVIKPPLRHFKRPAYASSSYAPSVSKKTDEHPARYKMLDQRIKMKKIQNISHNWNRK

In turn, `CCOc1ncc(C#N)cc1-c1cc(N[C@@H]2CCOC2)c2c(cnn2C(C)C)n1` [Example 55, 6-ethoxy-5-[1-isopropyl-7-[[(3R)-tetrahydrofuran-3-yl]amino]pyrazolo[4,3-b]pyridin-5-yl]pyridine-3-carbonitrile] displayed an inhibition at 10 µM on PDE1A of 69%. Besides, the values for the IC50 at PDE1B and at PDE1C were 1380 nM and 2500 nM, respectively.
With `COc1ccncc1-c1cc(N[C@@H]2CCOC2)c2c(cnn2C(C)C)n1` [Example 31, 1-isopropyl-5-(4-methoxy-3-pyridyl)-N-[(3R)-tetrahydrofuran-3-yl]pyrazolo[4,3-b]pyridin-7-amine], the inhibition at 10 µM against PDE1A was determined as 63%; on PDE1C (@ 10 μM compound, read-out: PDE1 C, % inhibition @ 10 μM), 76%. Also, the IC50 on PDE1B is 1230 nM.
On to `CC(C)n1ncc2nc(-c3cccnc3OC(C)(C)C)cc(N[C@@H]3CCOC3)c21` [Example 36, 5-(2-tert-butoxy-3-pyridyl)-1-isopropyl-N-[(3R)-tetrahydrofuran-3-yl]pyrazolo[4,3-b]pyridin-7-amine], for which the figures for the IC50 against PDE1A, at PDE1B and at PDE1C were 260 nM, 91 nM and 3230 nM, respectively.
Regarding `Cc1cc2c(nc1-c1ccccc1)c(C)nn2C(C)C` [Example 60, 1-isopropyl-3,6-dimethyl-5-phenyl-pyrazolo[4,3-b]pyridine], the values for the IC50 on PDE1A, on PDE1B and on PDE1C were 225 nM, 122 nM and 198 nM, respectively.
As for `CCOc1ncccc1-c1cc(NC2CCOCC2)c2c(cnn2C(C)C)n1` [Example 10, 5-(2-ethoxy-3-pyridyl)-1-isopropyl-N-tetrahydropyran-4-yl-pyrazolo[4,3-b]pyridin-7-amine], the inhibition at 10 µM on PDE1A was determined as 71%. Also, the values for the IC50 on PDE1B and at PDE1C were 126 nM and 2660 nM, respectively.
Regarding `COc1cc(-c2cc(N[C@@H]3CCOC3)c3c(cnn3C(C)C)n2)c(OC)cn1` [Example 38, 5-(2,5-dimethoxy-4-pyridyl)-1-isopropyl-N-[(3R)-tetrahydrofuran-3-yl]pyrazolo[4,3-b]pyridin-7-amine], the IC50 on PDE1A was found to be 1160 nM; on PDE1B, 308 nM; at PDE1C, 566 nM.
With `CCOc1ncccc1-c1cc(NC2CCOC2)c2c(cnn2C2CCOC2)n1` (stereo not drawn) [Example 2, 5-(2-ethoxy-3-pyridyl)-N,1-di(tetrahydrofuran-3-yl)pyrazolo[4,3-b]pyridin-7-amine], at 1 µM the inhibition against PDE1A (@ 1 μM compound) was 13%. Moreover, the IC50 came out at 445 nM at PDE1B and 403 nM at PDE1C.
`CC(C)n1ncc2nc(-c3cccc4c3OCO4)cc(N[C@@H]3CCOC3)c21` [Example 32, 5-(1,3-benzodioxol-4-yl)-1-isopropyl-N-[(3R)-tetrahydrofuran-3-yl]pyrazolo[4,3-b]pyridin-7-amine]: the half-inhibitory concentration (IC50) at PDE1A was 1290 nM; at PDE1B it was 284 nM; on PDE1C it was 1200 nM.
On the same counts, the results for `CCOc1ncccc1-c1cc(NC[C@@H]2CCCO2)c2c(cnn2C(C)C)n1` [Example 6, 5-(2-ethoxy-3-pyridyl)-1-isopropyl-N-[[(2S)-tetrahydrofuran-2-yl]methyl]pyrazolo[4,3-b]pyridin-7-amine] are 653 nM, 111 nM and 1390 nM.
For the molecule `CCOc1ncccc1-c1cc(NCC2CC(=O)N(C)C2)c2c(n1)c(C)nn2C(C)C` (stereo not drawn) [Example 68, 4-[[[5-(2-ethoxy-3-pyridyl)-1-isopropyl-3-methyl-pyrazolo[4,3-b]pyridin-7-yl]amino]methyl]-1-methyl-pyrrolidin-2-one], the IC50 amounted to 53 nM on PDE1A, 12 nM at PDE1B and 88 nM at PDE1C.
Turning to `CCOc1ncccc1-c1ccn2c(C3CCOC3)nc(C)c2n1` (racemic) [Example 81, (±)-2-(2-ethoxy-3-pyridyl)-8-methyl-6-tetrahydrofuran-3-yl-imidazo[1,5-a]pyrimidine], the half-inhibitory concentration (IC50) on PDE1A was 1130 nM; at PDE1B, 145 nM; at PDE1C it was 1630 nM.
